Values after ≈ are worked out from the molar mass of the structure shown. Read-outs that look alike come from different tables or passages of the source.
Assays:
ps.fl bacteria = assay: Speed of Kill (SOK) test, 4 h, synthetic hard water (Table 3); assay type: cell-based; conditions: Pseudomonas fluorescens, read-out: SOK (concentration at which compound killed >99.999% of the cells)
Excerpt: The Speed of Kill (SOK) Test measures the loss of cell viability in an aqueous suspension of bacterial cells during a four hour period when these cells are contacted with a defined concentration of the test compound in synthetic hard water (SHW). A stock solution or dispersion of the test compound, typically at a concentration of 1%, is made in a 5:3:2 solvent solution of acetone, methanol, and water. The SHW is made by taking one liter of sterile deionized water and adding the following solutions to it:
1. 2 ml of a solution of 31.74 g of MgCl2 and 73.99 g of CaCl2 in 1000 ml of sterile distilled water which has been heat sterillized.
2. 4 ml of a solution of 56.03 g of NaHCO3 in 1000 ml of water which has been filter sterillized.
The combined solution is then filter sterilized to yield the SHW. A volume of the stock solution is dispensed into the SHW to give an initial test compound starting concentration of 500 ppm.
(§1) When the test is ready to be run, each vessel in the dilution series, except the first vessel, contains an equal volume of the SHW mixture with the test compound. The first vessel contains twice the volume of SHW with the starting concentration of test compound. One half of the SHW from the first vessel is transferred to the second vessel. After being mixed, one half the resulting volume is removed from the second vessel and transferred to the third vessel. The entire cycle is repeated sufficiently to give a series of concentrations amounting to 500, 250, 125, 63, 31, 16, 8, and 4 ppm, respectively.
Each vessel is then inoculated with a cell suspension of the ps.fl bacteria. The bacteria were grown on a 1% agar slant tube and incubated for 18-24 hours at 30° C. Thereafter, the tube is washed with four ml of sterile water. This was is diluted to a density of 60 to 80 Nephlolmeter Turbidity Units (NTU). To 100 ml of the SHW containing the various concentrations of the test compound is added 0.75 ml of inoculum from the 60-80 NTU wash with good mixing. After 4 hours from the time of addition at 30° C., 5 μl of solution is transferred to 100 μl of a broth solution in order to recover any living cells. This mixture is incubated for 24 hours at 30° C. before noting the concentration in ppm at which each compound killed >99.999% of the cells in the SHW solution.

[1] = test system: Pseudomonas fluorescens (Ps.fl); assay: MIC, broth two-fold serial dilution (Table 3), Ps.fl; assay type: cell-based; conditions: read-out: MIC Ps.fl
Excerpt: (§2) A minimum inhibitory concentration (MIC) value is obtained using a broth, two-fold serial dilution test performed as follows: A stock solution or dispersion of the test compound, typically at a concentration of 1%, is made in a 5:3:2 solvent solution of acetone, methanol, and water. A volume of the stock solution is dispensed into culture media to give an initial starting test concentration of 500 ppm compound.
as §1, with “done,” for “run,”, “compound free broth.” for “the SHW mixture with the test compound.”, “broth” for “SHW”
(§3) Each vessel is then inoculated with a cell suspension of the appropriate test organism. Bacteria are grown in broth and fungi on agar slants for a time and at a temperature appropriate to the species being tested. At the end of the growth period, the broth is vortexed to disperse the cells. In the case of fungi, the spores are harvested by pipetting water onto the slant and dislodging the spores with a sterile loop. The cell/spore suspension is standardized by controlling incubation time, temperature, and the volume of the diluent. The suspension is then used to inoculate the vessels containing the broth compound. The vessels are then incubated at the appropriate temperature. After the incubation, the vessels are examined for growth/no growth. The minimum inhibitory concentration (MIC) is defined as the lowest concentration of compound that results in complete inhibition of growth of the test organism.
Pseudomonas fluorescens (Ps.fl), gram negative

[2] = test system: Pseudomonas aerugenosa (Ps.ae); assay: MIC, broth two-fold serial dilution (Table 3), Ps.ae; assay type: cell-based; conditions: read-out: MIC Ps.ae
Excerpt: as §2
as §1, with “done,” for “run,”, “compound free broth.” for “the SHW mixture with the test compound.”, “broth” for “SHW”
as §3
Pseudomonas aerugenosa (Ps.ae), gram negative

Escherichia coli (E.c) = assay: MIC, broth two-fold serial dilution (Table 3), E.c; assay type: cell-based; conditions: read-out: MIC E.c
Excerpt: as §2
as §1, with “done,” for “run,”, “compound free broth.” for “the SHW mixture with the test compound.”, “broth” for “SHW”
as §3
Escherichia coli (E.c), gram negative

[3] = test system: Staphylococcus aureus (S.a); assay: MIC, broth two-fold serial dilution (Table 3), S.a; assay type: cell-based; conditions: read-out: MIC S.a
Excerpt: as §2
as §1, with “done,” for “run,”, “compound free broth.” for “the SHW mixture with the test compound.”, “broth” for “SHW”
as §3
Staphylococcus aureus (S.a), gram positive

Aspergillus niger (A.n) = assay: MIC, broth two-fold serial dilution (Table 3), A.n; assay type: cell-based; conditions: read-out: MIC A.n
Excerpt: as §2
as §1, with “done,” for “run,”, “compound free broth.” for “the SHW mixture with the test compound.”, “broth” for “SHW”
as §3

[4] = test system: Aureobasidium pullulans (A.p); assay: MIC, broth two-fold serial dilution (Table 3), A.p; assay type: cell-based; conditions: read-out: MIC A.p
Excerpt: as §2
as §1, with “done,” for “run,”, “compound free broth.” for “the SHW mixture with the test compound.”, “broth” for “SHW”
as §3
Aureobasidium pullulans (A.p)

A.n = assay: Minimum Inhibitory Concentration Test, alternate (Table 4), A.n; assay type: cell-based, Aspergillus niger; conditions: Aspergillus niger, TSB, 72 hours
Outline: (§4)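 Compound in acetone was diluted into TSB and serially diluted 1:1 from 250 ppm down to 0.8 ppm, in duplicate. Plates were inoculated with diluted 24 h culture and incubated 3 days at 30° C; MIC recorded as lowest concentration with no growth.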

Pseudomonas fluorescens = assay: Minimum Inhibitory Concentration Test, alternate (Table 4), Ps.fl; assay type: cell-based; conditions: Pseudomonas fluorescens, TSB, 72 hours, 30° C
Outline: as §4

[5] = test system: Pseudoperonospora cubensis; assay: whole plant or invertebrate; assay type: in vivo; conditions: Pseudoperonospora cubensis, in Cucumis sativus, 168 h; read-out: % control CDM
Piricularia oryzae = assay: whole plant or invertebrate; assay type: in vivo; conditions: Pyricularia oryzae, read-out: % control RB
[6] = test system: Pellicularia filamentosa (f. sp. sasiki); assay: whole plant or invertebrate; assay type: in vivo; conditions: 120 h; read-out: % control RSB
Phytophthora infestans = assay: whole plant or invertebrate; assay type: in vivo; conditions: Phytophthora infestans, in Solanum lycopersicum, 96 h, read-out: % control TLB
[7] = test system: Erysiphe graminis (f. sp. tritici); assay: whole plant or invertebrate; assay type: in vivo; conditions: Blumeria graminis; read-out: % control WPM
[8] = test system: Puccinia graminis (f. sp. tritici Race 15B-2); assay: whole plant or invertebrate; assay type: in vivo; conditions: 336 h, read-out: % control WSR
[9] = test system: Puccinia recondita (f. sp. tritici Races PKB and PLD); assay: whole plant or invertebrate; assay type: in vivo; conditions: Puccinia recondita, 240 h; read-out: % control WLR
[10] = Table 3, Ps.fl in synthetic hard water, 4 hours, 30° C
[11] = Table 3, broth two-fold serial dilution

| Compound | MBC (ps.fl bacteria; [10]) [µg/mL] | MIC [1, 11] [µg/mL] | MIC [2] [µg/mL] | MIC (Escherichia coli (E.c); [11]) [µg/mL] | MIC [3, 11] [µg/mL] | MIC (Aspergillus niger (A.n)) [µg/mL] | MIC [4, 11] [µg/mL] | MIC (A.n) [µg/mL] | MIC (Pseudomonas fluorescens) [µg/mL] | pest or weed control at 200 ppm [5] [%] | pest or weed control at 200 ppm (Piricularia oryzae) [%] | pest or weed control at 300 ppm [7] [%] | also measured |
| --- | --- | --- | --- | --- | --- | --- | --- | --- | --- | --- | --- | --- | --- |
| CC(=O)C(S/C(Cl)=C(/Cl)C(=O)NC1CCCCC1)C(C)=O [Example 6, N-cyclohexyl-2,3-dichloro-cis-3-[3-(2,4-pentanedionyl)thio]acrylamide] | > 500 | > 500 | 32 (≈ 90.8 µM) | 500 (≈ 1420 µM) | 16 (≈ 45.4 µM) | 125 (≈ 355 µM) | < 4 | > 500 | > 500 | 85 | 70 | 0 | pest or weed control at 200 ppm [6]: 0%; pest or weed control at 300 ppm (Phytophthora infestans): 0%; pest or weed control at 300 ppm [8]: 0% |
| CCCCCCCCNC(=O)/C=C\SC(C(=O)Nc1cc(C)ccc1Cl)C(=O)OCC (stereo not drawn) [Example 42, N-n-octyl-cis-3-{2-[ethyl-N-(2-chloro-5-methylphenyl)malonamido]thio}acrylamide] | 125 (≈ 266 µM) | 8 (≈ 17.1 µM) | > 500 | 500 (≈ 1070 µM) | 8 (≈ 17.1 µM) | < 4 | 16 (≈ 34.1 µM) |  |  |  |  |  | pest or weed control at 100 ppm (Phytophthora infestans): 91% |
| CCCCCCCCNC(=O)/C=C\SC(C(=O)NCCCCCCCC)C(=O)OCC (stereo not drawn) [Example 18, N-n-octyl-cis-3-[2-(ethyl-N-n-octylmalonamido)thio]acrylamide] |  |  | > 500 |  |  | < 4 |  | > 500 | > 500 | 97 | 25 |  | MBC (ps.fl bacteria; 4 h): 16 µg/mL (≈ 35 µM); MIC [1]: < 4 µg/mL; MIC (Escherichia coli (E.c)): 250 µg/mL (≈ 547 µM); MIC [3]: 8 µg/mL (≈ 17.5 µM); MIC [4]: < 4 µg/mL; pest or weed control at 300 ppm [6]: 90%; pest or weed control at 200 ppm (Phytophthora infestans): 92%; pest or weed control at 200 ppm [7]: 0%; pest or weed control at 200 ppm [9]: 74% |
| CCCCCCCCNC(=O)/C=C\SC(C(=O)NCc1cccnc1)C(=O)OCC (stereo not drawn) [Example 49, N-n-octyl-cis-3-{2-[ethyl-N-((3-pyridyl)methyl)malonamido]thio}acrylamide] | > 500 | > 500 | < 4 | > 500 | < 4 | < 4 | < 4 |  |  |  |  |  | pest or weed control at 100 ppm [5]: 85%; pest or weed control at 100 ppm (Piricularia oryzae): 0%; pest or weed control at 100 ppm [6]: 0%; pest or weed control at 100 ppm (Phytophthora infestans): 90%; pest or weed control at 100 ppm [7]: 50%; pest or weed control at 100 ppm [9]: 0% |
| CCCCCCCCNC(=O)/C(Cl)=C(/Cl)SC(C(C)=O)C(C)=O [Example 2, N-n-octyl-2,3-dichloro-cis-3-[3-(2,4-pentanedionyl)thio]acrylamide] | > 500 | > 500 | < 4 | > 500 | < 4 | 8 (≈ 20.9 µM) | < 4 | > 500 | > 500 |  |  | 78 | pest or weed control at 300 ppm [5]: 85%; pest or weed control at 300 ppm (Piricularia oryzae): 0%; pest or weed control at 300 ppm [6]: 0%; pest or weed control at 300 ppm (Phytophthora infestans): 10%; pest or weed control at 150 ppm [8]: 85% |
| CCCCCCCCNC(=O)/C=C\SC(C(C)=O)C(C)=O [Example 1, N-n-octyl-cis-3-[3-(2,4-pentanedionyl)thio]acrylamide] | > 500 | > 500 | < 4 | > 500 | < 4 | 8 (≈ 25.5 µM) | < 4 | > 500 | > 500 | 100 | 98 | 25 | pest or weed control at 200 ppm (Phytophthora infestans): 100%; pest or weed control at 100 ppm [8]: 50% |
| CCCCCCCCNC(=O)/C=C\SC(C(=O)OCC)C(=O)c1ccccc1 (stereo not drawn) [Example 69, N-n-octyl-cis-3-[2-(ethoxy-3-phenyl-3-oxopropanoyl)thio]acrylamide] |  |  | 32 (≈ 78.9 µM) |  |  | 125 (≈ 308 µM) |  |  |  |  |  |  | MBC (ps.fl bacteria; 4 h): > 500 µg/mL; MIC [1]: > 500 µg/mL; MIC (Escherichia coli (E.c)): 500 µg/mL (≈ 1230 µM); MIC [3]: 16 µg/mL (≈ 39.5 µM); MIC [4]: < 4 µg/mL |
